In PubChem BioAssay (NCI):
“And” between values parts separate entries of the source, which are not always exact repeats. Equal values may be shown once.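 A five-concentration, 48-hour dose response in 96-well plates underlies each endpoint, interpolated linearly between surrounding concentrations. GI50 = concentration required for 50% inhibition of growth. TGI marks complete inhibition of growth.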 Starred links: 1 amine or outer side, 2 acyl side, 3 side chain; linkers in the order of their positions; H or OH if unused. Positions of bridges follow the written chain, without caps; N, C: chain ends. Non-standard residues stand in square brackets, D forms with d. Residues, ends and D or L forms follow the SMILES beside them. Chains are numbered I, II in the order given. Actinocin(1to9) = Cc1c2oc3c(C)ccc(C(=O)[*:2])c3nc-2c(C(=O)[*:1])c(N)c1=O; NMeV = CN[CH](C(=O)O)C(C)C; Sar = CNCC(=O)O

Assays:
Assay in all cases: inhibition of tumour cell growth, NCI panel, 48 h
SF-268 CNS = test system: SF-268 CNS
UO-31 renal = test system: UO-31 renal
SK-MEL-5 melanoma = test system: SK-MEL-5 melanoma
NCI-H522 lung = test system: NCI-H522 lung
SF-539 CNS = test system: SF-539 CNS
MOLT-4 leukemia = test system: MOLT-4 leukemia
SN12C renal = test system: SN12C renal
CCRF-CEM leukemia = test system: CCRF-CEM leukemia
OVCAR-4 ovarian = test system: OVCAR-4 ovarian
OVCAR-3 ovarian = test system: OVCAR-3 ovarian

Structure (SMILES) | TGI (SF-268 CNS) | TGI (UO-31 renal) | TGI (SK-MEL-5 melanoma) | TGI (NCI-H522 lung) | TGI (SF-539 CNS) | TGI (MOLT-4 leukemia) | TGI (SN12C renal) | TGI (CCRF-CEM leukemia) | TGI (OVCAR-4 ovarian) | TGI (OVCAR-3 ovarian) | GI50 (SF-268 CNS) | GI50 (UO-31 renal) | GI50 (SK-MEL-5 melanoma) | GI50 (NCI-H522 lung) | GI50 (SF-539 CNS) | GI50 (SN12C renal) | GI50 (CCRF-CEM leukemia) | GI50 (OVCAR-4 ovarian) | GI50 (OVCAR-3 ovarian)
CCOC(=O)C(/C(=N/S(=O)(=O)c1cc(C)c(Cl)cc1[S-])[n+]1ccc(N(C)C)cc1)=C(/O)c1ccc([N+](=O)[O-])cc1 | > 100 µM | > 100 µM | > 100 µM | 34.6 µM | 53.9 µM | > 100 µM | > 100 µM | 87.2 µM | 88.6 µM | > 100 µM |  |  |  |  |  |  |  |  | 
CC(C)(C)OC(=O)n1c2ccccc2c2c(=O)nc(N3CCCCC3)sc21 | > 100 µM | 44.9 µM | > 100 µM | > 100 µM | > 100 µM | > 100 µM | > 100 µM | > 100 µM | > 100 µM | > 100 µM |  |  |  |  |  |  |  |  | 
O=C(O[C@@H](/C=C/c1ccccc1)P1(=O)N(Cc2ccccc2)[C@H]2CCCC[C@@H]2N1Cc1ccccc1)c1ccccc1 | > 100 µM | 11.7 µM | 3.67 µM | > 100 µM | 21.3 µM |  | 6.74 µM | 17.9 µM | > 100 µM | 33.9 µM |  |  |  |  |  |  |  |  | 
O=c1[nH]c(Nc2ccc(Cl)c(C(F)(F)F)c2)nc2nc[nH]c12 | > 100 µM | > 100 µM | > 100 µM | 34.3 µM | > 100 µM | 62.4 µM | > 100 µM | 45.4 µM | > 100 µM | > 100 µM |  |  |  |  |  |  |  |  | 
OC(c1ccccc1)(c1ccccc1)c1nccc2ccccc12 | > 100 µM | > 100 µM | 27 µM | 40.8 µM |  | 59.4 µM | > 100 µM | 95.5 µM | > 100 µM | 52.5 µM |  |  |  |  |  |  |  |  | 
Cc1c(N2C(=O)/C(=C/c3ccc(Cl)cc3)N=C2c2ccccc2)c(=O)n(-c2ccccc2)n1C | > 100 µM | 93.7 µM | 34.3 µM | 44.8 µM | 73.6 µM | > 100 µM | > 100 µM | > 100 µM | > 100 µM | > 100 µM |  |  |  |  |  |  |  |  | 
Nc1ncnc2c1sc1nc3ccccc3n12 | > 100 µM | > 100 µM | > 100 µM | > 95.8 µM | 47.9 µM | > 78.7 µM | > 100 µM | > 100 µM | > 100 µM | > 100 µM |  |  |  |  |  |  |  |  | 
Cc1coc2c1C[C@@]1(C)[C@H](CCC[C@@H]1C)[C@H]2O | > 100 µM |  | 28.9 µM | 90.5 µM | 62.8 µM | 59.7 µM | 55.5 µM | > 100 µM | 68.4 µM | 57.8 µM |  |  |  |  |  |  |  |  | 
N#CC12Cc3cc4c(cc3-c3cccc(c31)CCN2C(=O)c1ccccc1)OCO4 (stereo not drawn) | > 100 µM | > 100 µM | > 100 µM |  | > 100 µM | > 100 µM | > 100 µM | > 100 µM |  | > 100 µM |  |  |  |  |  |  |  |  | 
c1ccc(-c2nnn3c2NC2=C(CCCC2)C3c2ccccc2)cc1 (stereo not drawn) | 48.9 µM | 34.1 µM | 30.1 µM | 19.9 µM | 35.8 µM | 24.7 µM | 51.1 µM | 31.1 µM |  | 37.7 µM |  |  |  |  |  |  |  |  | 
COc1ccc(C(=O)C2=NON3OC23C(=O)c2ccc(OC)cc2)cc1 (stereo not drawn) | 40.2 µM | 28 µM | 29.3 µM | 3.68 µM | 24 µM | > 21.9 µM | 28.6 µM |  | 16.2 µM | 23.3 µM |  |  |  |  |  |  |  |  | 
COc1cc2oc(=O)ccc2cc1C(=O)CC(C)C | > 100 µM | > 100 µM | > 100 µM | 56.4 µM | > 100 µM | > 100 µM | > 100 µM | > 100 µM | > 100 µM | > 100 µM |  |  |  |  |  |  |  |  | 
Cn1cnc([N+](=O)[O-])c1Sc1nc(N)nc2c1ncn2C1OC(CO)C(O)C1O (stereo not drawn) | > 100 µM | 37.4 µM | 25.7 µM | 33.5 µM | 85.6 µM | > 100 µM | > 100 µM | > 100 µM | > 100 µM | > 43.4 µM |  |  |  |  |  |  |  |  | 
CN(C)c1ccc(C=Nc2ccc(-c3nc4ccccc4[nH]3)cc2)cc1 | > 100 µM | > 100 µM | > 100 µM | > 100 µM | > 100 µM | > 100 µM | > 100 µM | > 100 µM | > 100 µM | > 100 µM |  |  |  |  |  |  |  |  | 
CCC(C)C1NC(=O)C(NC(=O)c2c3nc4c(C(=O)NC5C(=O)NC(C(C)CC)C(=O)N6CCCC6C(=O)N(C)CC(=O)N(C)C(C(C)C)C(=O)OC5C)ccc(C)c4oc-3c(C)c(=O)c2N)C(C)OC(=O)C(C(C)C)N(C)C(=O)CN(C)C(=O)C2CCCN2C1=O (stereo not drawn) (I: TIP[Sar][NMeV] / II: TIP[Sar][NMeV]; ester I:1-I:C, II:1-II:C; linker I:N-II:N via Actinocin(1to9); configuration not given here) | 0.0586 µM | 0.143 µM and 0.316 µM | 0.018 µM | 0.00176 µM | 0.00698 µM | 0.0144 µM | 0.192 µM and 0.263 µM | 0.0106 µM | 0.273 µM | 0.0389 µM |  |  |  |  |  |  |  |  | 
Cn1c(=O)[nH]c2nncnc2c1=O | > 625 µM | 358 µM | 177 µM | > 516 µM | 246 µM | > 625 µM | > 497 µM | > 625 µM | > 319 µM | 298 µM |  |  |  |  |  |  |  |  | 
Cc1ccccc1N=Nc1c(O)c(S(=O)(=O)O)cc2cc(S(=O)(=O)O)ccc12 | > 100 µM | > 100 µM | > 100 µM | > 100 µM | > 100 µM | > 100 µM | > 100 µM | > 100 µM | > 100 µM | > 100 µM |  |  |  |  |  |  |  |  | 
Clc1ccccc1/C=c1\nc(-c2ccccc2)n2c1nc1ccccc12 | 54.6 µM | > 100 µM | > 100 µM |  | 41.9 µM | > 100 µM | > 100 µM | > 100 µM | > 100 µM | > 100 µM |  |  |  |  |  |  |  |  | 
CC(=O)OC1CC[C@@]2(C)C(=CC[C@@H]3[C@@H]2CC[C@]2(C)Nc4nn(S(C)(=O)=O)cc4C[C@@H]32)C1 (stereo partly drawn) |  | > 100 µM | 28.4 µM | > 100 µM |  | 53.9 µM | > 100 µM | 38.5 µM |  | 57.8 µM |  |  |  |  |  |  |  |  | 
CC(C)(C)OC(=O)NC(CCCCNC(=O)OCc1ccccc1)C(=O)NCCNc1ccc(NCCNC(=O)C(CCCCNC(=O)OCc2ccccc2)NC(=O)OC(C)(C)C)c2c1C(=O)c1ccccc1C2=O (stereo not drawn) | > 64.6 µM | > 100 µM | > 100 µM | 93.3 µM | > 52.8 µM | > 100 µM | > 100 µM | > 100 µM | > 100 µM | > 100 µM |  |  |  |  |  |  |  |  | 
O=C(CSc1nc2ccc([N+](=O)[O-])cc2s1)c1ccc2ccccc2c1 | > 100 µM | > 100 µM | > 100 µM | > 100 µM | > 100 µM | > 100 µM | > 100 µM | > 100 µM | > 100 µM | > 100 µM |  |  |  |  |  |  |  |  | 
OCc1cn(C(c2ccccc2)(c2ccccc2)c2ccccc2)cn1 |  | > 100 µM | > 100 µM | > 100 µM |  | > 100 µM | > 100 µM | > 100 µM | > 100 µM | > 100 µM |  |  |  |  |  |  |  |  | 
O=C(O)c1ccc(C(=O)c2ccccc2C(=O)O)cc1C(=O)O | > 100 µM | > 100 µM | > 100 µM | > 100 µM | > 100 µM | > 100 µM | > 100 µM | > 100 µM | > 100 µM | > 100 µM |  |  |  |  |  |  |  |  | 
Nc1c(C(=O)O)nnc2cc(Cl)c(Cl)cc12 | > 100 µM | > 100 µM | > 100 µM | > 100 µM | > 100 µM | > 100 µM | > 100 µM | > 100 µM | > 100 µM | > 100 µM |  |  |  |  |  |  |  |  | 
COc1nc2[nH]ccc2c(=O)[nH]1 | > 100 µM | > 100 µM | > 100 µM |  | > 100 µM | > 100 µM | > 100 µM | > 100 µM | > 100 µM |  |  |  |  |  |  |  |  |  | 
COCC1CCCN1c1ccc(C=N/C(C#N)=C(\N)C#N)cc1 (stereo not drawn) | > 100 µM | > 100 µM | > 100 µM | 56.2 µM | > 100 µM |  | 84.5 µM | > 100 µM | > 100 µM | > 100 µM | 67.8 µM | 4.98 µM | 98.2 µM | 15.8 µM | 40.3 µM | 4.85 µM | 3.22 µM | > 100 µM | 46.1 µM
